Patent US6083932A, “Pharmaceutical compositions derived from ginseng and methods of treatment using same” (CV Technologies Inc., priority 1998, dated 2000)

Key:
[1] = tested on: choline uptake into synaptosomes, whole brain; assay: choline uptake into synaptosomes from rat whole brain; format: biochemical; conditions: various doses; n=10
Excerpt: We also studied the effects of HT1001 on choline uptake in synaptosomes.
We have examined choline uptake in synaptosome preparations from whole brain and hippocampus in the presence of Rb1, HT1001 and HC3.
The magnitude of these effects are consistent with the previous studies.

[2] = tested on: choline uptake into synaptosomes, whole brain; conditions: Benishin 1992 / previously demonstrated; cited from earlier work
[3] = tested on: choline uptake in rat brain synaptomes; assay: choline uptake in rat brain synaptosomes (Example 2); format: biochemical; conditions: mean ± SE, n = 4
Excerpt: Example 2 is a comparison of several batches of Rb1 extract, an extract of total ginsenosides (TS) containing 25% Rb1, 19.4% Rc1 and 21.6% Rg1+Re, and HT1001 on choline uptake in rat brain synaptomes. The Rb1 tested had greater than 98% purity. Rb1-52, Rb1-53 and Rb1-54 represent three different batches of Rb1.

monoamine oxidase-B = target: T1, monoamine oxidase-B (Rattus norvegicus, UniProt P19643); assay: in vitro monoamine oxidase-B inhibiting activity (radiochemical, β-phenylethylamine substrate); format: biochemical; conditions: read-out: inhibition of monoamine oxidase B activity
T1 construct: homogenates of rat brain; from tissue; host or cells: rat brain homogenate
T1 sequence (P19643 1-520): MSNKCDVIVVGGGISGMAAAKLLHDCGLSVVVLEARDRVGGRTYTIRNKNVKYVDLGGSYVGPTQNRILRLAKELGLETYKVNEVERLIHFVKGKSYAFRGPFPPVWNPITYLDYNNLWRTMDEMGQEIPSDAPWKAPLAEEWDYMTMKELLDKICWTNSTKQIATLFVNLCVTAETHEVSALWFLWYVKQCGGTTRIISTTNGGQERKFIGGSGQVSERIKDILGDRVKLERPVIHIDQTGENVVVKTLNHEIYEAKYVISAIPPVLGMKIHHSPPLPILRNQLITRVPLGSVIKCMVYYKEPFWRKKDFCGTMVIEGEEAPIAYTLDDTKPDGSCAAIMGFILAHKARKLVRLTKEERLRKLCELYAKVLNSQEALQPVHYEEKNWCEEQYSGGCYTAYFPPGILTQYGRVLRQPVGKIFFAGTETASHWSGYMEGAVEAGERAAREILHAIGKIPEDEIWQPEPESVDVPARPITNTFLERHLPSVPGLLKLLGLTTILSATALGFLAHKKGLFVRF
Experimental: (§1) Example 1 is a study of the effects of several extracts of HT1001, PQ4, PQ5, PQ6 and pure ginsenosides, on monoamine oxidase A (MAO A) and monoamine oxidase B (MAO B) activity in vitro.
(§2) HT-1001, related extracts and pure ginsenosides were evaluated for in vitro monoamine oxidase-A and monoamine oxidase-B inhibiting activity using the radiochemical procedure of Lyles and Callingham, Biochem. Pharmacol. 31: 1417-1424 (1982), employing either radiolabelled 5-hydroxytryptamine or β-phenylethylamine as substrates for monoamine oxidase-A (MAO-A) or monoamine oxidase-B (MAO-B) respectively. Various concentrations of the compounds of interest were incubated in appropriately diluted homogenates of rat brain in a 0.2 M potassium phosphate buffer. After a 15 minute preincubation period the reaction was initiated by the addition of substrate. Incubations proceded at 37° C. for 10 minutes. Incubation was terminated by the addition of acid and the radiolabelled products (5-hydroxyindoleacetic acid, 5-hydroxyindoleacetaldehyde or phenylacetic acid, phenylacetaldehyde) were extracted and quantified by liquid scintillation counting procedures. Incubations were done in triplicate and incubations including pheneizine a known MAO inhibitor were included as controls and for comparison. The percent inhibition of monoamine oxidase-A or monoamine oxidase-B activity compared to controls containing no experimental material was calculated.

monoamine oxidase-A = target: T2, monoamine oxidase-A (Rattus norvegicus, UniProt P21396); assay: in vitro monoamine oxidase-A inhibiting activity (radiochemical, 5-hydroxytryptamine substrate); format: biochemical; conditions: read-out: inhibition of monoamine oxidase A activity
T2 construct: homogenates of rat brain; from tissue; host or cells: rat brain homogenate
T2 sequence (P21396 1-526): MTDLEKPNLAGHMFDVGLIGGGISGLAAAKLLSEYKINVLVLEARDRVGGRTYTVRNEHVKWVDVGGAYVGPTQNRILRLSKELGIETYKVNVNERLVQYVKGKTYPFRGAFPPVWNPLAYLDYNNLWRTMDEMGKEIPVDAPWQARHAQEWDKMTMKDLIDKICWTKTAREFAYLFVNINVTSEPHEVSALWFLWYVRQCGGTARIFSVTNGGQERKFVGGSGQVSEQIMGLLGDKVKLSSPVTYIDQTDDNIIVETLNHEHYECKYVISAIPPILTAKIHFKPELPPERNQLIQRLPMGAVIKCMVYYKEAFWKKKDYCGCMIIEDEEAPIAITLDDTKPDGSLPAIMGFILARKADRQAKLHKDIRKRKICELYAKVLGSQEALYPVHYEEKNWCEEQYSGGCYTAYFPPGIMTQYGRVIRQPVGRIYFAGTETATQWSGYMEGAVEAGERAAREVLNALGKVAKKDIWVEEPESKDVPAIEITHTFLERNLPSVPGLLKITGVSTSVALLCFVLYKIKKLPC
Experimental: as §1, §2

rats = assay: Morris water maze, learning and memory, scopolamine induced amnesia; format: in vivo, rat; conditions: for mean latency: scopolamine 2 mg/kg, all scopolamine treated animals; for memory effect of scopolamine treatment: 2 mg/kg
Excerpt: First, we studied the effects of HT1001 on Learning and Memory. […] As HT1001 is a mixture of ginsenosides, it may not have the same properties as pure Rb1. […] Rats are required to learn the location of a hidden platform in a swimming pool. […] The effects of HT1001 on memory can also be examined in scopolamine induced amnesia. If HT1001 enhances memory it should protect against memory loss in scopolamine treated animals.
The Morris water maze task was based on methods previously described (Pitsikas et al, Pharmacol. Biochem. Behav. 47: 95-99 (1994); Smith et al, Psychopharmacol. 114: 651-656 (1994)). The apparatatus consisted of a circular pool (1.7 m diameter, 35 cm deep) which contained water (30° C.) made cloudy by the presence of powdered milk. A moveable platform (10 cm×11.5 cm and 20 cm tall) was placed in the pool such that it was submerged by 3 cm and could not be seen. Each trial involved placing the rat in the pool in one of the four equally spaced quadrants in which the pool was divided. Visual cues consisting of large posters were placed on the walls of the room in which the experiment was conducted, and the experimenters maintained established positions throughout each experiment. During the learning period, animals were allowed to swim freely until they found the escape platform. […] During the initial learning period, all rats were tested sequentially and were given 4 trials per day during which the escape platform was located in a fixed position in the center of the pool. During the scopolamine trials rats were tested sequentially three times on cach day with the three trials being performed between 30 and 45 minutes following scopolamine or saline injection, The latency to reach the platform was recorded.
Experimental Design for Learning and Memory Testing
The specific aim of the experiment was to test if HT1001 affected the acquisition, retention and/or recall of a new task in the presence of scopolamine-induced amnesia. Rats were initially divided into two groups and fed either water (0.5 ml) or HT1001 (200 mg/kg/day in 0.5 ml water by gavage) for the duration of the experiment. Eight days after the initiation of water or HT1001 administration, rats were given the task of learning the position of a platform concealed at the center of the Morris water maze. The rats were placed in the pool 4 times per day for 5 days and the time required to find the platform was recorded (maximum duration 300 seconds). Latency became shorter as the rats learned the task. On day 14, the two groups of rats were further subdivided into four groups. […] In each instance the time to locate the platform (latency) was recorded. […]

PC12 cells = assay: neurite outgrowth in PC12 cells; format: cell-based; conditions: seven days after treatment
Experimental: A study of the neurotrophic effects of HT1001 and some pure ginsenosides was conducted. A new mechanism of action for HT1001 was shown, which is the stimulation of neurite outgrowth in a PC12 cell line. […] The beneficial effects (prevention/treatment) of HT-1001 may apply to degenerative diseases such as senile dementia, Parkinson's disease, Alzheimer's disease, multi-infarct dementia, etc. Alzheimer's disease (AD) is associated with degeneration of cholinergic nerve tracts including projections from the basal forebrain to the cortex and hippocampus. The PC12 (pheochromocytoma) cell line is one of the models for the study of the development of these nerve tracts. The cell line is phenotypically a chromaffin cell line, but can be induced to express adrenergic and cholinergic markers as well. This model has the advantages that (1) it is an immortalized cell line, (2) it is sensitive to, but not dependent upon, NGF for survival, and (3) it shares many properties in common with the central cholinergic neurons of the basal forebrain. It has been noted that PC12 cells are not sensitive to all of the trophic factors that central cholinergic neurons respond to, whereas central cholinergic neurons respond to all trophic factors that PC12 cells respond to. […] The cellular responses to Nerve Growth Factor (NGF) and samples were determined by counting the number of cells containing processes in PC12 cells. […] The cells and neurites were counted as follows: The cells with circular or global shape and no neurite outgrowth were scored as 0 (S0). […] Cells with more than two small neurites on the cell bodies were scored as S2. Cells with one or two neurites with a length of at least two times diameter as their body were scored as S3. Cells with more than two long neurites were scored as S4. The neurite index was calculated as below: Neurite index (In)=total neurite Score (ΣS)/total cell number (.[…] is the cell number of every cell field. The test samples included: […]

In the case of `C[N+]1(C)CCOC(O)(c2ccc(-c3ccc(C4(O)C[N+](C)(C)CCO4)cc3)cc2)C1` (stereo not drawn) [HC3], the “choline uptake by rat brain synaptosomes (FIG. 28, in words)” value [1] is given as “inhibits choline uptake” and the “choline uptake (literature)” value [2] is given as “inhibit choline uptake”.

For `CC(C)=CCC[C@](C)(O[C@@H]1O[C@H](CO[C@@H]2O[C@H](CO)[C@@H](O)[C@H](O)[C@H]2O)[C@@H](O)[C@H](O)[C@H]1O)[C@H]1CC[C@]2(C)[C@@H]1[C@H](O)C[C@@H]1[C@@]3(C)CC[C@H](O[C@@H]4O[C@H](CO)[C@@H](O)[C@H](O)[C@H]4O[C@@H]4O[C@H](CO)[C@@H](O)[C@H](O)[C@H]4O)C(C)(C)[C@@H]3CC[C@]12C` [Rb1-52, ginsenoside Rb1], the choline uptake ([3]; 0.0011 mg/l) was 108 ± 5.7 % of control, the choline uptake ([3]; 0.011 mg/l) was 108 ± 4.4 % of control and the choline uptake ([3]; 0.11 mg/l) was 108 ± 5.8 % of control. For the same molecule, the choline uptake ([3]; 1.1 mg/l) was 109 ± 5.4 % of control and the choline uptake ([3]; 11 mg/l) was 111 ± 3.7 % of control.

In the case of `CC(C)=CCC[C@](C)(O[C@@H]1O[C@H](CO[C@@H]2O[C@H](CO)[C@@H](O)[C@H](O)[C@H]2O)[C@@H](O)[C@H](O)[C@H]1O)[C@H]1CC[C@]2(C)[C@@H]1[C@H](O)C[C@@H]1[C@@]3(C)CC[C@H](O[C@@H]4O[C@H](CO)[C@@H](O)[C@H](O)[C@H]4O[C@@H]4O[C@H](CO)[C@@H](O)[C@H](O)[C@H]4O)C(C)(C)[C@@H]3CC[C@]12C` [Rb1-53, ginsenoside Rb1], the choline uptake ([3]; 0.0011 mg/l) is reported as 106 ± 1.3 % of control, the choline uptake ([3]; 0.011 mg/l) is reported as 109 ± 3.6 % of control and the choline uptake ([3]; 0.11 mg/l) is reported as 109 ± 3.8 % of control. The choline uptake ([3]; 1.1 mg/l) was 112 ± 4.8 % of control and the choline uptake ([3]; 11 mg/l) was 114 ± 2.5 % of control.

With `CC(C)=CCC[C@](C)(O[C@@H]1O[C@H](CO[C@@H]2O[C@H](CO)[C@@H](O)[C@H](O)[C@H]2O)[C@@H](O)[C@H](O)[C@H]1O)[C@H]1CC[C@]2(C)[C@@H]1[C@H](O)C[C@@H]1[C@@]3(C)CC[C@H](O[C@@H]4O[C@H](CO)[C@@H](O)[C@H](O)[C@H]4O[C@@H]4O[C@H](CO)[C@@H](O)[C@H](O)[C@H]4O)C(C)(C)[C@@H]3CC[C@]12C` [Rb1-54, ginsenoside Rb1] the choline uptake ([3]; 0.0011 mg/l) was 108 ± 3 % of control, the choline uptake ([3]; 0.011 mg/l) was 110 ± 3.4 % of control and the choline uptake ([3]; 0.11 mg/l) was 110 ± 2.6 % of control. The choline uptake ([3]; 1.1 mg/l) was 112 ± 1.2 % of control and the choline uptake ([3]; 11 mg/l) was 111 ± 2.6 % of control.

Work on `NNCCc1ccccc1` [phenylzine] yielded an inhibition at 100 µM (monoamine oxidase-B) of 93% and an inhibition at 100 µM (monoamine oxidase-A) of 97.5%.

For `CN1[C@@H]2C[C@@H](OC(=O)[C@H](CO)c3ccccc3)C[C@H]1[C@@H]1O[C@@H]12` [scopolamine], the mean latency (rats; day 14, third trial) was 39.5 ± 8.2 s, the “memory effect of scopolamine treatment” value (rats; day 15) was “produces a memory deficit” and the mean latency (rats; day 16, third trial) was 18.4 ± 2.9 s. The “memory effect of scopolamine treatment” value (rats; day 17) was “produces a memory deficit”.

In the case of Nerve Growth Factor [NGF], the “neurite outgrowth (FIG. 29)” value (PC12 cells) is reported as “increased neurite outgrowth in PC12 cells in a dose-dependent manner”.
